One data set addresses human integrin αvβ5 (Homo sapiens, UniProt P06756+P18084). Put plainly: Evaluation of integrin binding property (surface plasmon resonance, Biacore 3000, immobilized cyclic peptide). The gist of the method: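 Human αvβ5 (30-1,000 nM) flowed for 10 min at 25 °C over immobilized cyclic peptide in 20 mM HEPES, 150 mM NaCl, 5 mM MgCl2, pH 7.4, followed by 30 min running buffer and 0.5 M EDTA regeneration. Dissociation constant from peptide minus unimmobilized channel, scored into standard grades.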

Data set [1] in a line: Evaluation of molecule stability (alkali treatment, residual rate by LC/MS). Type of data set: physicochemical. To be noted: for Stability (molecule stability, residual rate of the cyclic peptide rank): alkali treatment, residual rate by LC/MS; for Performance evaluation: Stability (residual rate of cyclic peptide after alkali treatment): 500 μM peptide aqueous solution plus equivalent of 1 M sodium hydroxide, 15° C., 3 hours, LC/MS peak area. In outline: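 Stability read as percent of summed LC/MS peak area remaining versus untreated peptide (C18, 45 °C, 10 mM ammonium formate pH 3, ESI positive/negative). Treatment: 500 μM peptide in water plus an equivalent of 1 M NaOH, 15 °C for 3 hours.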

Where [2] appears, read: surface plasmon resonance, immobilized cyclic peptide, human integrin αvβ5, read-out: Binding activity (integrin binding property, dissociation constant rank).
Setting [3] is: SPR, 25° C., HEPES buffer with 5 mM magnesium chloride, integrin 30-1,000 nM, read-out: Performance evaluation: Binding activity (dissociation constant between the cyclic peptide and human integrin αvβ5).

Like-named read-outs stand apart in the source and are kept apart here. Starred links: 1 amine or outer side, 2 acyl side, 3 side chain; linkers in the order of their positions; H or OH if unused. Positions of bridges follow the written chain, without caps; N, C: chain ends. Non-standard residues stand in square brackets, D forms with d. Residues, ends and D or L forms follow the SMILES beside them. hCys = N[C@@H](CCS)C(=O)O; Dab = NCC[C@H](N)C(=O)O; Dap = NC[C@H](N)C(=O)O; X1 = O=C(C[*:2])[*:1]; X2 = O=C(C[*:1])[*:2] Where only a bound is given, the exact number is not on record here.

Chain of human integrin αvβ5 (P06756 31-1048): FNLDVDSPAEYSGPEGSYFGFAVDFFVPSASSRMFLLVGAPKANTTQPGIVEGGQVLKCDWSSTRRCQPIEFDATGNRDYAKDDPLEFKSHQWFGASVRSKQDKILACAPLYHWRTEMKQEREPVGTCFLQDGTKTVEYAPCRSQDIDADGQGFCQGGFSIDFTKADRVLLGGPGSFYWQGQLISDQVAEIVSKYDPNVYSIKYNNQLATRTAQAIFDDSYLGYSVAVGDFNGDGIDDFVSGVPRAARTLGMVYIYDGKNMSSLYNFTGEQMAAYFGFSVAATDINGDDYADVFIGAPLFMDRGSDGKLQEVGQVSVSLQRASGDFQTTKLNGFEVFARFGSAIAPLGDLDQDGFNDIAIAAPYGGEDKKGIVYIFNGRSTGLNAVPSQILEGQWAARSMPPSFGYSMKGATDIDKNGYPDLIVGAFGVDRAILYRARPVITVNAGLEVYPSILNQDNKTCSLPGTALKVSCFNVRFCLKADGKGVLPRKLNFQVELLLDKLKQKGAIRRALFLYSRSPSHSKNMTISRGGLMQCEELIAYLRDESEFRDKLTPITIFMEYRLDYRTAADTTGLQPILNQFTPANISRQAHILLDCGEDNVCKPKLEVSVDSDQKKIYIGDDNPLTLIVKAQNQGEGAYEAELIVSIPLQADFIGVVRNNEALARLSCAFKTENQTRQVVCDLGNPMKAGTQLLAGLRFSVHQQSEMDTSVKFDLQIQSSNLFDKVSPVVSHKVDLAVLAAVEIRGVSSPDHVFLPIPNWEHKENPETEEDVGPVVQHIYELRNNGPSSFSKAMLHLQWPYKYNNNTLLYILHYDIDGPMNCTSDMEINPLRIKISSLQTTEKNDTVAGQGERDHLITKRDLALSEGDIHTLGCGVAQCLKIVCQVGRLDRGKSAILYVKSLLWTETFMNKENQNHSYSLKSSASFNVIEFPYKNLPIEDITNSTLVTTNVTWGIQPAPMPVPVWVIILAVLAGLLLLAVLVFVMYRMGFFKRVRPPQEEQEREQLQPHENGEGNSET
Chain of human integrin αvβ5 (P18084 24-799): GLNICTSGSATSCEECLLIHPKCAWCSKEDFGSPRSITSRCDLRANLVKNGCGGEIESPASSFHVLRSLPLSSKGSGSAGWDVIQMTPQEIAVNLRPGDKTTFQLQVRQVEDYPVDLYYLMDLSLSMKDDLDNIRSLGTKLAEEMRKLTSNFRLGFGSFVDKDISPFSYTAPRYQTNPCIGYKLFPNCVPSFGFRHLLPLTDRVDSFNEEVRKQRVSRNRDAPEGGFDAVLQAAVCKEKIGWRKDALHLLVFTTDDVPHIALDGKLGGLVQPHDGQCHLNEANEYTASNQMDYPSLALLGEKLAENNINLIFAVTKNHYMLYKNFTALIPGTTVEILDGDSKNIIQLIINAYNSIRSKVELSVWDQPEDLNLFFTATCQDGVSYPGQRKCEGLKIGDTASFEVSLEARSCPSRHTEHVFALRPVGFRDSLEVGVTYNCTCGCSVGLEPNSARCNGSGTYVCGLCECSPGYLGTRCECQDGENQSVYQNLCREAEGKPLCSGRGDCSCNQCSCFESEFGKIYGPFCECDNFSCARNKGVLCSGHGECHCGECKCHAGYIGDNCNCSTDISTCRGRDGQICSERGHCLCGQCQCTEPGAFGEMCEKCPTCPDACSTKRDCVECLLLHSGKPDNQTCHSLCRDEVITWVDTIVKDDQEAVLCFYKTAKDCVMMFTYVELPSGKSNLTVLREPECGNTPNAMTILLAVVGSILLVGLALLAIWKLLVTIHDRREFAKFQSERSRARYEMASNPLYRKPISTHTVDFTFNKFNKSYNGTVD

As for `C[C@@H]1NC(=O)[C@H](Cc2ccccc2)NC(=O)[C@H]([C@@H](C)O)NC(=O)[C@H](CC(=O)O)NC(=O)CNC(=O)[C@H](CCCNC(=N)N)NC(=O)[C@@H]2CCCN2C(=O)[C@H]([C@@H](C)O)NC(=O)[C@@H](NC(=O)[C@H](CCCCN)NC(=O)[C@H](CCCCN)NC(=O)[C@@H](N)CCCCN)CCSCC(=O)NCC[C@@H](C(=O)O)NC1=O` [Cyclic peptide 147, KKK-(Hcy)-TPRGDTFA(Dab(acetyl))] (H-KKK[hCys]TPRGDTFA[Dab]-OH; linker 4-13 via X2), the Kd at human integrin αvβ5 (setting [2]) was less than 50 nM. The “Stability (molecule stability, residual rate of the cyclic peptide rank)” value in data set [1] is “A (The residual rate of the cyclic peptide is 70% or more.)”.
On the same counts, the results for `C[C@@H]1NC(=O)[C@H](Cc2ccccc2)NC(=O)[C@H]([C@@H](C)O)NC(=O)[C@H](CC(=O)O)NC(=O)CNC(=O)[C@H](CCCNC(=N)N)NC(=O)[C@@H]2CCCN2C(=O)[C@H](CC(=O)O)NC(=O)[C@@H](NC(=O)[C@H](CCCCN)NC(=O)[C@H](CCCCN)NC(=O)[C@@H](N)CCCCN)CCSCC(=O)NCC[C@@H](C(=O)O)NC1=O` [Cyclic peptide 144, KKK-(Hcy)-DPRGDTFA(Dab(acetyl))] (H-KKK[hCys]DPRGDTFA[Dab]-OH; linker 4-13 via X2) are less than 50 nM and “A (The residual rate of the cyclic peptide is 70% or more.)”.
For the compound `CC[C@H](C)[C@@H]1NC(=O)[C@@H](NC(=O)[C@H](CCCCN)NC(=O)[C@H](CCCCN)NC(=O)[C@@H](N)CCCCN)CCSCC(=O)NCC[C@@H](C(=O)O)NC(=O)[C@H](CCCNC(=N)N)NC(=O)[C@H](Cc2ccccc2)NC(=O)[C@H]([C@@H](C)O)NC(=O)[C@H](CC(=O)O)NC(=O)CNC(=O)[C@H](CCCNC(=N)N)NC(=O)[C@@H]2CCCN2C1=O` [Cyclic peptide 61, KKK-(Hcy)-IPRGDTFR(Dab(acetyl))] (H-KKK[hCys]IPRGDTFR[Dab]-OH; linker 4-13 via X2), at human integrin αvβ5 (setting [3]), the Kd was less than 50 nM. Besides, the “Performance evaluation: Stability (residual rate of cyclic peptide after alkali treatment)” value in data set [1] is “A (The residual rate of the cyclic peptide is 70% or more.)”.
Consider `C[C@H](NC(=O)[C@H](CCCCN)NC(=O)[C@H](CCCCN)NC(=O)[C@@H](N)CCCCN)C(=O)N[C@H]1CNC(=O)CSCC[C@@H](C(N)=O)NC(=O)[C@H](CCCNC(=N)N)NC(=O)[C@H](Cc2ccc(O)cc2)NC(=O)[C@H](CC(N)=O)NC(=O)[C@H](CC(=O)O)NC(=O)CNC(=O)[C@H](CCCNC(=N)N)NC(=O)[C@@H]2CCCN2C(=O)[C@H](CCC(=O)O)NC1=O` [Cyclic peptide 53, KKKA(Dap(acetyl))EPRGDNYR-(Hcy)] (H-KKKA[Dap]EPRGDNYR[hCys]-NH2; linker 5-14 via X1), for which, at human integrin αvβ5 (setting [3]), the Kd was 50 to 100 nM. Moreover, the “Performance evaluation: Stability (residual rate of cyclic peptide after alkali treatment)” value in data set [1] was “B (The residual rate of the cyclic peptide is 50% or more and less than 70%.)”.
In the case of `CC(C)C[C@@H]1NC(=O)[C@@H](NC(=O)[C@H](C)NC(=O)[C@H](CCCCN)NC(=O)[C@H](CCCCN)NC(=O)[C@@H](N)CCCCN)CCSCC(=O)NCC[C@@H](C(=O)N[C@@H](CC(=O)O)C(=O)O)NC(=O)[C@H](CCCNC(=N)N)NC(=O)[C@H](Cc2ccc(O)cc2)NC(=O)[C@H](CC(N)=O)NC(=O)[C@H](CC(=O)O)NC(=O)CNC(=O)[C@H](CCCNC(=N)N)NC(=O)[C@@H]2CCCN2C1=O` [Cyclic peptide 31, KKKA-(Hcy)-LPRGDNYR(Dab(acetyl))D] (H-KKKA[hCys]LPRGDNYR[Dab]D-OH; linker 5-14 via X2), the Kd on human integrin αvβ5 (setting [3]) was less than 50 nM. In addition, in data set [1], the “Performance evaluation: Stability (residual rate of cyclic peptide after alkali treatment)” value was “A (The residual rate of the cyclic peptide is 70% or more.)”.
On to `CC(C)C[C@@H]1NC(=O)[C@@H](NC(=O)CNC(=O)[C@H](CCCCN)NC(=O)[C@H](CCCCN)NC(=O)[C@@H](N)CCCCN)CCSCC(=O)NCC[C@@H](C(=O)N[C@@H](C)C(=O)O)NC(=O)[C@H](CCCNC(=N)N)NC(=O)[C@H](Cc2ccccc2)NC(=O)[C@H]([C@@H](C)O)NC(=O)[C@H](CC(=O)O)NC(=O)CNC(=O)[C@H](CCCNC(=N)N)NC(=O)[C@@H]2CCCN2C1=O` [Cyclic peptide 71, KKKG-(Hcy)-LPRGDTFR(Dab(acetyl))A] (H-KKKG[hCys]LPRGDTFR[Dab]A-OH; linker 5-14 via X2), for which, at human integrin αvβ5 (setting [3]), the Kd is less than 50 nM. The “Performance evaluation: Stability (residual rate of cyclic peptide after alkali treatment)” value in data set [1] is on record as “A (The residual rate of the cyclic peptide is 70% or more.)”.
`C[C@H](NC(=O)[C@@H]1CCNC(=O)CSCC[C@H](NC(=O)[C@H](C)NC(=O)[C@H](CCCCN)NC(=O)[C@H](CCCCN)NC(=O)[C@@H](N)CCCCN)C(=O)N[C@@H]([C@@H](C)O)C(=O)N2CCC[C@H]2C(=O)N[C@@H](CCCNC(=N)N)C(=O)NCC(=O)N[C@@H](CC(=O)O)C(=O)N[C@@H]([C@@H](C)O)C(=O)N[C@@H](Cc2ccccc2)C(=O)N[C@@H](C)C(=O)N1)C(=O)O` [Cyclic peptide 160, KKKA-(Hcy)-TPRGDTFA(Dab(acetyl))A] (H-KKKA[hCys]TPRGDTFA[Dab]A-OH; linker 5-14 via X2): the Kd at human integrin αvβ5 (setting [2]) is less than 50 nM. Further, the “Stability (molecule stability, residual rate of the cyclic peptide rank)” value in data set [1] was “A (The residual rate of the cyclic peptide is 70% or more.)”.
On to `CC[C@H](C)[C@@H]1NC(=O)[C@@H](NC(=O)CNC(=O)[C@H](CCCCN)NC(=O)[C@H](CCCCN)NC(=O)[C@@H](N)CCCCN)CCSCC(=O)NCC[C@@H](C(=O)N[C@@H](C)C(=O)O)NC(=O)[C@H](C)NC(=O)[C@H](Cc2ccccc2)NC(=O)[C@H]([C@@H](C)O)NC(=O)[C@H](CC(=O)O)NC(=O)CNC(=O)[C@H](CCCNC(=N)N)NC(=O)[C@@H]2CCCN2C1=O` [Cyclic peptide 86, KKKG-(Hcy)-IPRGDTFA(Dab(acetyl))A] (H-KKKG[hCys]IPRGDTFA[Dab]A-OH; linker 5-14 via X2), for which the Kd on human integrin αvβ5 (setting [3]) is less than 50 nM. The “Performance evaluation: Stability (residual rate of cyclic peptide after alkali treatment)” value in data set [1] was “A (The residual rate of the cyclic peptide is 70% or more.)”.
On the same counts, the results for `CC[C@H](C)[C@@H]1NC(=O)[C@@H](NC(=O)[C@H](CCCCN)NC(=O)[C@H](CCCCN)NC(=O)[C@@H](N)CCCCN)CCSCC(=O)NCC[C@@H](C(=O)N[C@@H](C)C(=O)O)NC(=O)[C@H](CCCNC(=N)N)NC(=O)[C@H](Cc2ccccc2)NC(=O)[C@H]([C@@H](C)O)NC(=O)[C@H](CC(=O)O)NC(=O)CNC(=O)[C@H](CCCNC(=N)N)NC(=O)[C@@H]2CCCN2C1=O` [Cyclic peptide 57, KKK-(Hcy)-IPRGDTFR(Dab(acetyl))A] (H-KKK[hCys]IPRGDTFR[Dab]A-OH; linker 4-13 via X2) are less than 50 nM and “A (The residual rate of the cyclic peptide is 70% or more.)”.
Take `CC(C)[C@@H]1NC(=O)[C@@H](NC(=O)CNC(=O)[C@H](CCCCN)NC(=O)[C@H](CCCCN)NC(=O)[C@@H](N)CCCCN)CCSCC(=O)NCC[C@@H](C(=O)N[C@@H](C)C(=O)O)NC(=O)[C@H](C)NC(=O)[C@H](Cc2ccccc2)NC(=O)[C@H]([C@@H](C)O)NC(=O)[C@H](CC(=O)O)NC(=O)CNC(=O)[C@H](CCCNC(=N)N)NC(=O)[C@@H]2CCCN2C1=O` [Cyclic peptide 106, KKKG-(Hcy)-VPRGDTFA(Dab(acetyl))A] (H-KKKG[hCys]VPRGDTFA[Dab]A-OH; linker 5-14 via X2): at human integrin αvβ5 (setting [2]), the Kd was less than 50 nM. For the same compound, in data set [1], the “Stability (molecule stability, residual rate of the cyclic peptide rank)” value is “A (The residual rate of the cyclic peptide is 70% or more.)”.
Consider `C[C@H](NC(=O)[C@@H]1CCNC(=O)CSCC[C@H](NC(=O)[C@H](CCCCN)NC(=O)[C@H](CCCCN)NC(=O)[C@@H](N)CCCCN)C(=O)N2CCC[C@H]2C(=O)N[C@@H](CCCNC(=N)N)C(=O)NCC(=O)N[C@@H](CC(=O)O)C(=O)N[C@@H](CC(N)=O)C(=O)N[C@@H](Cc2ccccc2)C(=O)N[C@@H](CCCNC(=N)N)C(=O)N1)C(=O)O` [Cyclic peptide 9, KKK-(Hcy)-PRGDNFR(Dab(acetyl))A] (H-KKK[hCys]PRGDNFR[Dab]A-OH; linker 4-12 via X2), for which, on human integrin αvβ5 (setting [3]), the Kd fell in the range of 100 to 200 nM. Moreover, the “Performance evaluation: Stability (residual rate of cyclic peptide after alkali treatment)” value in data set [1] is reported as “A (The residual rate of the cyclic peptide is 70% or more.)”.
In the case of `CC[C@H](C)[C@@H]1NC(=O)[C@H](C)NC(=O)[C@@H](NC(=O)[C@H](CCCCN)NC(=O)[C@H](CCCCN)NC(=O)[C@@H](N)CCCCN)CCSCC(=O)NCC[C@@H](C(=O)N[C@@H](C)C(=O)O)NC(=O)[C@H](CCCNC(=N)N)NC(=O)[C@H](Cc2ccccc2)NC(=O)[C@H](CC(N)=O)NC(=O)[C@H](CC(=O)O)NC(=O)CNC(=O)[C@H](CCCNC(=N)N)NC(=O)[C@@H]2CCCN2C1=O` [Cyclic peptide 15, KKK-(Hcy)-AIPRGDNFR(Dab(acetyl))A] (H-KKK[hCys]AIPRGDNFR[Dab]A-OH; linker 4-14 via X2), the Kd at human integrin αvβ5 (setting [3]) lay in the range of 50 to 100 nM. Besides, in data set [1], the “Performance evaluation: Stability (residual rate of cyclic peptide after alkali treatment)” value is “A (The residual rate of the cyclic peptide is 70% or more.)”.
The like results for `CC[C@H](C)[C@@H]1NC(=O)[C@@H](NC(=O)[C@H](C)NC(=O)[C@H](CCCCN)NC(=O)[C@H](CCCCN)NC(=O)[C@@H](N)CCCCN)CCSCC(=O)NCC[C@@H](C(=O)N[C@@H](C)C(=O)O)NC(=O)CNC(=O)[C@H](Cc2ccccc2)NC(=O)[C@H]([C@@H](C)O)NC(=O)[C@H](CC(=O)O)NC(=O)CNC(=O)[C@H](CCCNC(=N)N)NC(=O)[C@@H]2CCCN2C1=O` [Cyclic peptide 88, KKKA-(Hcy)-IPRGDTFG(Dab(acetyl))A] (H-KKKA[hCys]IPRGDTFG[Dab]A-OH; linker 5-14 via X2) were, in that order, less than 50 nM and “A (The residual rate of the cyclic peptide is 70% or more.)”.

The values are drawn from patent US12673975B2, “Cyclic peptide, cell scaffold material, cell separating material, and medium” (FUJIFILM Corporation, priority 2019, dated 2026).
